For this assay, the target named is T1, recombinant human PKM2 (Homo sapiens, UniProt P14618).
T1 construct: His (N); purchased R&D Systems
Kind of assay: Human PKM2 activation assay (Kinase-Glo Plus luminescent detection of generated ATP). As to conditions: for Emax: percentage activation normalised to DMSO vehicle (LOW) and 5 μM TEPP-46 (HIGH), read-out: hPKM2 Emax; for pEC50: recombinant human PKM2 activation, 4-parameter logistic fit, read-out: hPKM2 EC50. The format is biochemical. The essentials:
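Luminescent ATP detection (Kinase-Glo Plus, 15 min, 26 °C) followed a 60 min, 26 °C shaken reaction of compound with […] His-tagged human PKM2, PEP and ADP in imidazole/KCl/MgCl2 buffer with Tween20 and BSA, pH 7.2.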

SMILES strings stand for the structures. pEC50: −log10 of the molar value.

Data on 24 compounds can be found in US20260152487A1 (Sitryx Therapeutics Limited, priority 2021, published 2026).

T1 sequence (P14618 2-531 limits assumed): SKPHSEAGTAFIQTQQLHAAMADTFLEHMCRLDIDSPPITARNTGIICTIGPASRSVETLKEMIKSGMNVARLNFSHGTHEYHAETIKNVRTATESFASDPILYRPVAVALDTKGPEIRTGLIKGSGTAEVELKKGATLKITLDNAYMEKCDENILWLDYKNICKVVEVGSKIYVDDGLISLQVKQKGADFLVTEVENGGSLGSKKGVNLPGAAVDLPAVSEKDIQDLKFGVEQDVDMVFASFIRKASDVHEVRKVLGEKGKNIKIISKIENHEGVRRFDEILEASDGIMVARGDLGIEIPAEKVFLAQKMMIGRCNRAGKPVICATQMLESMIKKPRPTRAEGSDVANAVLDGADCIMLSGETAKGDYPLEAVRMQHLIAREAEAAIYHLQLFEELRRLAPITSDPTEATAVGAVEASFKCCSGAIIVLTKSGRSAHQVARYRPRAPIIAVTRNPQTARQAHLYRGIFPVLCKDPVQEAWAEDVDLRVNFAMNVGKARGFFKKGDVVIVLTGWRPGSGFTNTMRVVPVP

Turning to `Cc1cc2cc(S(=O)(=O)c3ccc4c(=O)n(Cc5cc[nH]n5)ncc4c3)ccc2o1` [Example 224, 2-((1H-pyrazol-3-yl)methyl)-6-((2-methylbenzofuran-5-yl)sulfonyl)phthalazin-1(2H)-one], the Emax was 121% and the pEC50 is 7.36.
For the compound `O=c1c2ccc(S(=O)(=O)c3ccc4[nH]ccc4c3)cc2cnn1Cc1cc[nH]n1` [Example 226, 6-((1H-indol-5-yl)sulfonyl)-2-((1H-pyrazol-3-yl)methyl)phthalazin-1(2H)-one], the Emax was 114% and the pEC50 is 6.45.
With `O=c1c2ccc(S(=O)(=O)c3ccc4sccc4c3)cc2cnn1Cc1cc[nH]n1` [Example 227, 2-((1H-pyrazol-3-yl)methyl)-6-(benzo[b]thiophen-5-ylsulfonyl)phthalazin-1(2H)-one], the Emax was determined as 115% and the pEC50 was 7.45.
In the case of `O=c1c2ccc(S(=O)(=O)c3ccc4c(n3)OCCO4)cc2cnn1Cc1cc[nH]n1` [Example 229, 2-((1H-pyrazol-3-yl)methyl)-6-((2,3-dihydro-[1,4]dioxino[2,3-b]pyridin-6-yl)sulfonyl)phthalazin-1(2H)-one], the Emax turned out to be 94.7% and the negative-log EC50 (pEC50) is 7.35.
With `O=c1c2ccc(S(=O)(=O)c3cc4c(cn3)OCCO4)cc2cnn1Cc1cc[nH]n1` [Example 230, 2-((1H-pyrazol-3-yl)methyl)-6-((2,3-dihydro-[1,4]dioxino[2,3-c]pyridin-7-yl)sulfonyl)phthalazin-1(2H)-one], the Emax came to 118% and the pEC50 was 6.74.
For `Cn1ccc2cc(S(=O)(=O)c3ccc4c(=O)n(Cc5cc[nH]n5)ncc4c3)ccc21` [Example 231, 2-((1H-pyrazol-3-yl)methyl)-6-((1-methyl-1H-indol-5-yl)sulfonyl)phthalazin-1(2H)-one], the maximal response (Emax) was found to be 111% and the pEC50 was 7.03.
As for `O=c1c2ccc(S(=O)(=O)c3cccnc3)cc2cnn1Cc1cc[nH]n1` [Example 233, 2-((1H-pyrazol-3-yl)methyl)-6-(pyridin-3-ylsulfonyl)phthalazin-1(2H)-one], the maximal response (Emax) was 126% and the pEC50 was 6.31.
On to `O=c1c2ccc(S(=O)(=O)c3cnc4c(c3)OCCO4)cc2cnn1Cc1cc[nH]n1` [Example 234, 2-((1H-pyrazol-3-yl)methyl)-6-((2,3-dihydro-[1,4]dioxino[2,3-b]pyridin-7-yl)sulfonyl)phthalazin-1(2H)-one], for which the Emax was 91.9% and the pEC50 was 6.40.
For the compound `COc1ccc(S(=O)(=O)c2ccc3c(=O)n(Cc4cc[nH]n4)ncc3c2)cn1` [Example 235, 2-((1H-pyrazol-3-yl)methyl)-6-((6-methoxypyridin-3-yl)sulfonyl)phthalazin-1(2H)-one], the Emax turned out to be 114% and the pEC50 is 7.25.
The like results for `Cn1cc(S(=O)(=O)c2ccc3c(=O)n(Cc4ccn(C5CC5)n4)ncc3c2)cn1` [Example 236, 2-((1-cyclopropyl-1H-pyrazol-3-yl)methyl)-6-((1-methyl-1H-pyrazol-4-yl)sulfonyl)phthalazin-1(2H)-one] were, in that order, 116% and 6.92.
The like results for `O=c1c2ccc(S(=O)(=O)c3ccn(CCO)n3)cc2cnn1Cc1cccnc1O` [Example 237, 6-(1-(2-hydroxyethyl)-1H-pyrazol-3-ylsulfonyl)-2-((2-hydroxypyridin-3-yl)methyl)phthalazin-1(2H)-one] were, in that order, 80.7% and 6.24.
Regarding `Cn1ccc(Cn2ncc3c(F)c(S(=O)(=O)c4ccccc4)ccc3c2=O)n1` [Example 243, 5-fluoro-2-((1-methyl-1H-pyrazol-3-yl)methyl)-6-(phenylsulfonyl)phthalazin-1(2H)-one], the Emax was 109% and the negative logarithm of the EC50 (pEC50) was 7.07.
Regarding `Cn1ccc(Cn2ncc3cc(S(=O)(=O)c4ccccc4)cc(F)c3c2=O)n1` [Example 245, 8-fluoro-2-((1-methyl-1H-pyrazol-3-yl)methyl)-6-(phenylsulfonyl)phthalazin-1(2H)-one], the Emax worked out at 103% and the pEC50 was 7.27.
The corresponding values for `O=c1c2cc(NCCO)c(S(=O)(=O)c3ccccc3)cc2cnn1Cc1cccnc1O` [Example 246, 7-((2-hydroxyethyl)amino)-2-((2-hydroxypyridin-3-yl)methyl)-6-(phenylsulfonyl)phthalazin-1(2H)-one] are 96.7% and 6.58.
The like results for `O=c1c2ccc(S(=O)(=O)c3ccccc3)c(NCCO)c2cnn1Cc1cccnc1O` [Example 247, 5-((2-hydroxyethyl)amino)-2-((2-hydroxypyridin-3-yl)methyl)-6-(phenylsulfonyl)phthalazin-1(2H)-one] were, in that order, 103% and 6.60.
Turning to `Cn1ccc(Cn2ncc3cc(S(=O)(=O)c4ccccc4)ncc3c2=O)n1` [Example 248, 3-((1-methyl-1H-pyrazol-3-yl)methyl)-7-(phenylsulfonyl)pyrido[3,4-d]pyridazin-4(3H)-one], the Emax was 103% and the pEC50 is 6.95.
With `Cn1ccc(Cn2ncc3cc([S+]([O-])c4ccccc4)ncc3c2=O)n1` (stereo not drawn) [Example 249, 3-((1-methyl-1H-pyrazol-3-yl)methyl)-7-(phenylsulfinyl)pyrido[3,4-d]pyridazin-4(3H)-one], the Emax was found to be 98.1% and the pEC50 was 6.28.
For the compound `Cn1ccc(Cn2ncc3cc(S(=O)(=O)c4ccccc4)cnc3c2=O)n1` [Example 250, 7-((1-methyl-1H-pyrazol-3-yl)methyl)-3-(phenylsulfonyl)pyrido[2,3-d]pyridazin-8(7H)-one], the Emax is 92.4% and the pEC50 was 6.40.
Take `O=c1c2ccc(S(=O)(=O)c3ccncc3)cc2cnn1Cc1cc[nH]n1` [Example 254, 2-((1H-pyrazol-3-yl)methyl)-6-(pyridin-4-ylsulfonyl)phthalazin-1(2H)-one]: the Emax was 107% and the pEC50 is 6.30.
On to `COc1ccc(S(=O)(=O)c2ccc3c(=O)n(Cc4c(O)ccnc4O)ncc3c2)cc1` [Example 255, 2-((2,4-dihydroxypyridin-3-yl)methyl)-6-(4-methoxyphenylsulfonyl)phthalazin-1(2H)-one], for which the Emax came to 104% and the pEC50 was 6.81.
In the case of `COc1ccc(S(=O)(=O)c2ccc3c(=O)n(Cc4cc[nH]n4)ncc3c2)nc1` [Example 257, 2-((1H-pyrazol-3-yl)methyl)-6-((5-methoxypyridin-2-yl)sulfonyl)phthalazin-1(2H)-one], the Emax amounted to 99.3% and the negative-log EC50 (pEC50) was 6.79.
Take `O=c1c2ccc(S(=O)(=O)c3cnccn3)cc2cnn1Cc1cc[nH]n1` [Example 260, 2-((1H-pyrazol-3-yl)methyl)-6-(pyrazin-2-ylsulfonyl)phthalazin-1(2H)-one]: the Emax came to 113% and the pEC50 is 6.33.
For `O=c1c2ccc(S(=O)(=O)c3ccccc3)cc2cnn1Cc1cnc2ccccn12` [Example 261, 2-(imidazo[1,2-a]pyridin-3-ylmethyl)-6-(phenylsulfonyl)phthalazin-1(2H)-one], the maximum response (Emax) came to 68% and the pEC50 is 6.67.
The like results for `Cn1ccc(Cn2ncc3cc(S(=N)(=O)c4ccccc4)ccc3c2=O)n1` (stereo not drawn) [Example 262, 2-((1-methyl-1H-pyrazol-3-yl)methyl)-6-(phenylsulfonimidoyl)phthalazin-1(2H)-one] were, in that order, 110% and 6.19.
